For orientation: EC50 means the concentration at which the effect is half-maximal. For orientation: IC50 means the concentration that inhibits the measured activity by half.

Molecules are shown by their SMILES. Where two headings read alike, the source gives them in different places. Some results are limits rather than exact numbers.

The record followed here is patent US20220380347A1, “INHIBITORS OF CYSTEINE PROTEASES AND METHODS OF USE THEREOF” (Pardes Biosciences, Inc., priority 2020, published 2022).

The target of one assay is 229E Mpro (Human coronavirus 229E, UniProt P0C6X1). Description: 229E Mpro enzymatic assay (standard methods, SARS-CoV2 Mpro assay given as exemplary). Type of assay: biochemical, human coronavirus (HCov) 229E. On the procedure: Compounds were assayed using standard methods to assess compound activity and IC50. As an exemplary for assessment of the SARS-COV2 Mpro, the C-His6-tagged Mpro (NC_045512) was cloned, expressed in E. coli and purified. The assay buffer contained 20 mM of Tris-HCl (pH 7.3), 100 mM of NaCl, 1 mM of EDTA, 5 mM of TCEP and 0.1% BSA. The final concentrations of the Mpro protein and substrate were 25 nM and 25 μM, respectively, in the Mpro enzymatic assay. The Km of the Mpro substrate for the protease was 13.5 μM.
The compounds were added to an assay plate. […] For no inhibition control (ZPE, zero percent effect), no compound was added.
IC50 values of compounds were calculated with the GraphPad Prism software using the nonlinear regression model of log(inhibitor) vs. response—Variable slope (four parameters). The inhibition activity was calculated using the formula below, IC50 values is calculated using the Inhibition % data.
Inhibition %=[(Sample-Average ZPE)/(Average HPE-Average ZPE)]*100%^#

In assay [1] the target is COVID-19 (nCoV-2019, SARS-CoV2) Mpro (Severe acute respiratory syndrome coronavirus 2, UniProt P0DTD1). The assay is described as follows: COVID-19 (nCoV-2019, SARS-CoV2) Mpro enzymatic assay. As to conditions: 25 nM Mpro, 25 μM substrate; read-out: COVID-19 Mpro IC50. The class given is biochemical.
In another assay the test system is HCov OC43. Description: HCoV OC43 cytopathic effect (CPE) assay, CellTiter Glo. Type of assay: cell-based, human coronavirus (HCov) OC43. On the procedure:
Example 238: Evaluation of antiviral activity of compounds against human coronavirus (HCov) 229E and OC43 in the cytopathic effect (CPE) assays
Compounds were assayed using standard methods against multiple coronaviral strains, including HCoV 229E and OC43 strains. The antiviral activity of compounds was calculated based on the protection of the virus-induced CPE at each concentration normalized by the virus control.
Reference compound used was remdesivir; detection reagent: CellTiter Glo.) The CPE were measured by CellTiter Glo following the manufacturer's manual. The antiviral activity of compounds was calculated based on the protection of the virus-induced CPE at each concentration normalized by the virus control.
Cell viability was measured with CellTiter Glo.
(Protection from cytopathic effect is a common read-out in antiviral testing.)

Where [2] appears, read: read-out: OC43 IC50 (uM) MEDIAN, median.

Chain of 229E Mpro (P0C6X1 2966-3267): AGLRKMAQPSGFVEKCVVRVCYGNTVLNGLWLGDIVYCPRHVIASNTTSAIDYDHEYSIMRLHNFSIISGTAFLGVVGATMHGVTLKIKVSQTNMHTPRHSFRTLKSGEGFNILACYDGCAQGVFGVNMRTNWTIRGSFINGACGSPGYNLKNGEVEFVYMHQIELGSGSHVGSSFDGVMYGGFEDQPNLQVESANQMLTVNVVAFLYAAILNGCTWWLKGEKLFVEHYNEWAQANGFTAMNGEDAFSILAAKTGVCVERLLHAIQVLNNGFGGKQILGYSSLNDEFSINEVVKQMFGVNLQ

On 229E Mpro (229E Mpro EC50), `N#CN1C[C@H]2C[C@H]2[C@@H]1C(=O)N(c1ccc(S(F)(F)(F)(F)F)cc1)C(C(=O)NC1CCC(F)(F)CC1)c1cnccc1C(F)(F)F` (single isomer, unassigned) [Compound 1318 Isomer 1] returned an EC50 of under 2 µM. In addition, the half-inhibitory concentration (IC50) in assay [1] was under 2 µM; in the assay with HCov OC43 (Betacoronavirus 1, OC43, read-out: OC43 IC50 (uM) MEDIAN, median), under 2 µM.

`CO[C@@H]1C[C@H](C(=O)N(c2ccc(S(F)(F)(F)(F)F)cc2)C(C(=O)NC(C)C2CCCCN2C(=O)OC(C)(C)C)c2cccnc2)N(C#N)C1` (single isomer, unassigned) [1303 Isomer 3.2]: the half-maximal effective concentration (EC50) on 229E Mpro (229E Mpro EC50) was 10 to 30 µM. In addition, the IC50 (in assay [1]; in the assay on HCov OC43 (setting [2])) was over 30 µM in each case. On 229E Mpro (229E Mpro EC50), `N#CN1CC(F)(F)C[C@@H]1C(=O)N(c1ccc(S(F)(F)(F)(F)F)cc1)C(C(=O)NC1CCC(F)(F)CC1)c1cccnc1` (single isomer, unassigned) [1087 Isomer 1] returned an EC50 of under 2 µM. For the same compound, the IC50 (in assay [1]; in the assay with HCov OC43 (setting [2])) was under 2 µM throughout.

As to `CC1(C)CN(C#N)[C@@H](C(=O)N(c2ccc(S(F)(F)(F)(F)F)cc2)C(C(=O)NC2CCC(F)(F)CC2)c2cncc(F)c2)CO1` (single isomer, unassigned) [1086b Isomer 2], the EC50 at 229E Mpro (read-out: 229E Mpro EC50) is under 2 µM. Further, the concentration for half-maximal inhibition (IC50) (in assay [1]; with HCov OC43 (setting [2])) was 2 to 10 µM each time.

On to `CC(C)(C)c1ccc(N(C(=O)c2scnc2C#N)C(C(=O)NC2CCCCC2)c2cccnc2)cc1` (stereo not shown) [Compound 899, N-(4-tert-butylphenyl)-4-cyano-N-[2-(cyclohexylamino)-2-oxo-1-(3-pyridyl)ethyl]thiazole-5-carboxamide], for which the 50% inhibitory concentration (IC50) in assay [1] was over 30 µM. On to `CC(C)(C)c1ccc(N(C(=O)c2cnc[nH]2)C(C(=O)NC2CCCCC2)c2ncc(Cl)nc2C#N)cc1` (stereo not shown) [Compound 110], for which the EC50 at 229E Mpro (229E Mpro EC50) was over 30 µM. For the same compound, the half-inhibitory concentration (IC50) in assay [1] is over 30 µM.

On to `CC(C)(C)c1ccc(N(C(=O)c2nsnc2C#N)C(C(=O)NC2CCCCC2)c2cccnc2)cc1` (stereo not shown) [Compound 122, N-(4-tert-butylphenyl)-4-cyano-N-[2-(cyclohexylamino)-2-oxo-1-(3-pyridyl)ethyl]-1,2,5-thiadiazole-3-carboxamide], for which, at 229E Mpro (read-out: 229E Mpro EC50), the EC50 was over 30 µM.

`CC(C)(C)OC(=O)N1CC(C)(C(=O)N(c2ccc(C(C)(C)C)cc2)C(C(=O)NC2CCCCC2)c2cccnc2)C1` (stereo not shown) [Compound 129] registered an EC50 at 229E Mpro (229E Mpro EC50) of over 30 µM. Also, the half-maximal inhibitory concentration (IC50) in assay [1] was over 30 µM. On to `CC(C)(C)c1ccc(N(C(=O)c2nsnc2C(N)=O)C(C(=O)NC2CCCCC2)c2cccnc2)cc1` (stereo not shown) [Compound 123a], for which the concentration giving a half-maximal response (EC50) at 229E Mpro (229E Mpro EC50) is over 30 µM. The IC50 in assay [1] is over 30 µM. Take `CC(C)(C)c1ccc(N(C(=O)[C@@H]2CCCN2)C(C(=O)NC2CCCCC2)c2cccnc2)cc1` (single isomer, unassigned) [Compound 131c]: at 229E Mpro (229E Mpro EC50), the EC50 is over 30 µM. In addition, the 50% inhibitory concentration (IC50) in assay [1] was over 30 µM.

In turn, `CC(C)(C)c1ccc(N(C(=O)[C@@H]2CCCN2C#N)C(C(=O)NC2CCCCC2)c2cccnc2)cc1` (stereo partly shown) [Compound 130c] registered an EC50 on 229E Mpro (229E Mpro EC50) of over 30 µM. Further, in assay [1], the IC50 was over 30 µM. `CC(C)(C)c1ccc(N(C(=O)c2cnc[nH]2)C(C(=O)NC2CCCCC2)c2ccc(C(F)(F)F)nc2Cl)cc1` (stereo not shown) [Compound 102a]: the IC50 in assay [1] is over 30 µM. The compound `NC(=O)c1nc(C2CC2)ccc1N(C(=O)c1cnc[nH]1)[C@H](C(=O)NC1CCCCC1)c1cccnc1` [Compound 833] gave an EC50 at 229E Mpro (229E Mpro EC50) of 2 to 10 µM. Besides, the half-maximal inhibitory concentration (IC50) in assay [1] fell in the range of 2 to 10 µM. As to `CC(C)(C)c1ccc(N(C(=O)[C@@H]2CCCN2)C(C(=O)NC2CCCCC2)c2cccnc2)cc1` (stereo partly shown) [Compound 131d], the EC50 on 229E Mpro (read-out: 229E Mpro EC50) was over 30 µM. In addition, in assay [1], the IC50 was over 30 µM. As to `CC(C)(C)c1ccc(N(C(=O)[C@H]2NCC2(C)C)[C@@H](C(=O)NC2CCCCC2)c2cccnc2)cc1` [Compound 136c], the concentration giving a half-maximal response (EC50) on 229E Mpro (229E Mpro EC50) is over 30 µM. In addition, the IC50 in assay [1] is over 30 µM. As to `CC(C)(C)c1ccc(N(C(=O)[C@H]2CCCN2C#N)C(C(=O)NC2CCCCC2)c2cccnc2)cc1` (single isomer, unassigned) [Compound 130b], at 229E Mpro (229E Mpro EC50), the EC50 lay in the range of 2 to 10 µM. In assay [1], the IC50 is over 30 µM. Regarding `CC(C)(C)c1ccc(N(C(=O)c2cnc[nH]2)C(C(=O)NC2CCCCC2)c2cncnc2)cc1` (stereo not shown) [Compound 104, N-(4-tert-butylphenyl)-N-[2-(cyclohexylamino)-2-oxo-1-pyrimidin-5-yl-ethyl]-1H-imidazole-5-carboxamide], the IC50 in assay [1] lay within 2 to 10 µM. With `CC(C)(C)c1ccc(N(C(=O)c2cnc[nH]2)C(C(=O)NC2CCCCC2)c2cccnc2Br)cc1` (stereo not shown) [Compound 100a], in assay [1], the IC50 was over 30 µM. With `CC(C)(C)OC(=O)N1CC(C(=O)N(c2ccc(C(C)(C)C)cc2)C(C(=O)NC2CCCCC2)c2cccnc2)C1` (stereo not shown) [Compound 126], the EC50 on 229E Mpro (229E Mpro EC50) was over 30 µM. Further, in assay [1], the IC50 is over 30 µM. In the case of `CC(C)(C)c1ccc(N(C(=O)C2CNC2)C(C(=O)NC2CCCCC2)c2cccnc2)cc1` (stereo not shown) [Compound 127], the EC50 on 229E Mpro (229E Mpro EC50) was over 30 µM. For the same compound, the IC50 in assay [1] is over 30 µM. In the case of `N#CN1C[C@H]2C[C@H]2[C@@H]1C(=O)N(c1ccc(S(F)(F)(F)(F)F)cc1)C(C(=O)NC1CCC(F)(F)CC1)c1cncc(F)c1` (single isomer, unassigned) [Compound 1095b Isomer 2], the IC50 (in assay [1]; in the assay on HCov OC43 (setting [2])) was under 2 µM in each case. Consider `CC(C)(C)c1ccc(N(C(=O)[C@H]2N(C#N)CC2(C)C)C(C(=O)NC2CCCCC2)c2cccnc2)cc1` (stereo partly shown) [Compound 136a], for which the half-maximal effective concentration (EC50) on 229E Mpro (229E Mpro EC50) is over 30 µM. Also, the half-maximal inhibitory concentration (IC50) in assay [1] was over 30 µM. On to `CC(C)(C)OC(=O)N1CCC[C@@H]1C(=O)N(c1ccc(C(C)(C)C)cc1)C(C(=O)NC1CCCCC1)c1cccnc1` (stereo partly shown) [Compound 131b], for which, on 229E Mpro (read-out: 229E Mpro EC50), the half-maximal effective concentration (EC50) is over 30 µM. Besides, in assay [1], the IC50 was over 30 µM.

On to `CC(C)(C)c1ccc(N(C(=O)c2scnc2Cl)C(C(=O)NC2CCCCC2)c2cccnc2)cc1` (stereo not shown) [Compound 899a], for which, in assay [1], the half-inhibitory concentration (IC50) is over 30 µM. As for `CC1(C(=O)N(c2ccc(C(C)(C)C)cc2)C(C(=O)NC2CCCCC2)c2cccnc2)CNC1` (stereo not shown) [Compound 129a], on 229E Mpro (229E Mpro EC50), the EC50 was over 30 µM. Also, the IC50 in assay [1] was over 30 µM. `CC(C)(C)c1ccc(N(C(=O)[C@H]2NCC2(C)C)[C@H](C(=O)NC2CCCCC2)c2cccnc2)cc1` [Compound 136b] showed a half-maximal effective concentration (EC50) at 229E Mpro (229E Mpro EC50) of over 30 µM. Also, the half-maximal inhibitory concentration (IC50) in assay [1] was over 30 µM.

On to `CC(C)(C)c1ccc(N(C(=O)[C@@H]2CCN2)[C@H](C(=O)NC2CCCCC2)c2cccnc2)cc1` [Compound 846], for which, at 229E Mpro (read-out: 229E Mpro EC50), the EC50 was under 2 µM. Take `CC(C)(C)c1ccc(N(C(=O)c2nccnc2C(N)=O)C(C(=O)NC2CCCCC2)c2cccnc2)cc1` (stereo not shown) [Compound 124a]: on 229E Mpro (229E Mpro EC50), the concentration for a half-maximal effect (EC50) is over 30 µM. For the same compound, the IC50 in assay [1] is over 30 µM. Regarding `NC(=O)c1nc(C2CC2)ccc1N(C(=O)c1cnc[nH]1)[C@@H](C(=O)NC1CCCCC1)c1cccnc1` [Compound 832], the concentration giving a half-maximal response (EC50) on 229E Mpro (read-out: 229E Mpro EC50) is 2 to 10 µM.

On 229E Mpro (229E Mpro EC50), `CC(C)(C)OC(=O)N1CCC[C@@H]1C(=O)N(c1ccc(C(C)(C)C)cc1)C(C(=O)NC1CCCCC1)c1cccnc1` (single isomer, unassigned) [Compound 131a] returned an EC50 of over 30 µM. For the same compound, in assay [1], the IC50 was over 30 µM.

The compound `CC(C)(C)c1ccc(N(C(=O)[C@H]2CCCN2C#N)C(C(=O)NC2CCCCC2)c2cccnc2)cc1` (single isomer, unassigned) [Compound 130a] displayed an EC50 on 229E Mpro (229E Mpro EC50) of under 2 µM. Besides, the IC50 in assay [1] was under 2 µM.
